The kinase profiling compilation of Christmann-Franck et al. (2016)

Columns and labels:
Assay in all cases: radiometric filter-binding kinase assay, Kinase HotSpot
Settings in all cases: compound 0.5 µM; ATP 10 µM
[1] = biological target: ABL2 (human) (UniProt P42684)
[2] = biological target: ACVR1 (human) (UniProt Q04771)
[3] = biological target: AKT2 (human) (UniProt P31751)
[4] = biological target: CAMKK2 (human) (UniProt Q96RR4)
[5] = biological target: CDK2 CCNA2 (human) (UniProt P24941+P20248)
[6] = biological target: CLK4 (human) (UniProt Q9HAZ1)
[7] = biological target: CSNK2A1 (human) (UniProt P68400)
[8] = biological target: DYRK1B (human) (UniProt Q9Y463)
[9] = biological target: EPHA8 (human) (UniProt P29322)
[10] = biological target: FES (human) (UniProt P07332)
[11] = biological target: FGFR3 (human) (UniProt P22607)
[12] = biological target: FGR (human) (UniProt P09769)
[13] = biological target: HIPK2 (human) (UniProt Q9H2X6)
[14] = biological target: IGF1R (human) (UniProt P08069)
[15] = biological target: KDR (human) (UniProt P35968)
[16] = biological target: KIT (human) (UniProt P10721)
[17] = biological target: MAP3K7 TAB1 (human) (UniProt O43318+Q15750)
[18] = biological target: MAP4K4 (human) (UniProt O95819)
[19] = biological target: MAPKAPK2 (human) (UniProt P49137)
[20] = biological target: MST1R (human) (UniProt Q04912)
[21] = biological target: NEK3 (human) (UniProt P51956)
[22] = biological target: NEK6 (human) (UniProt Q9HC98)
[23] = biological target: NUAK2 (human) (UniProt Q9H093)
[24] = biological target: OXSR1 (human) (UniProt O95747)
[25] = biological target: PBK (human) (UniProt Q96KB5)
[26] = biological target: PDGFRB (human) (UniProt P09619)
[27] = biological target: PIM2 (human) (UniProt Q9P1W9)
[28] = biological target: PRKCA (human) (UniProt P17252)
[29] = biological target: PRKD1 (human) (UniProt Q15139)
[30] = biological target: PTK2 (human) (UniProt Q05397)
[31] = biological target: RIPK2 (human) (UniProt O43353)
[32] = biological target: ROCK1 (human) (UniProt Q13464)
[33] = biological target: SGK2 (human) (UniProt Q9HBY8)
[34] = biological target: SIK2 (human) (UniProt Q9H0K1)
[35] = biological target: STK16 (human) (UniProt O75716)
[36] = biological target: STK24 (human) (UniProt Q9Y6E0)
[37] = biological target: STK4 (human) (UniProt Q13043)
[38] = biological target: SYK (human) (UniProt P43405)
[39] = biological target: TAOK3 (human) (UniProt Q9H2K8)
[40] = biological target: TTK (human) (UniProt P33981)
[41] = biological target: TYK2 JH1 catalytic (human) (UniProt P29597)

Chain of MAPKAPK2 (human) (P49137 whole entry, looked up): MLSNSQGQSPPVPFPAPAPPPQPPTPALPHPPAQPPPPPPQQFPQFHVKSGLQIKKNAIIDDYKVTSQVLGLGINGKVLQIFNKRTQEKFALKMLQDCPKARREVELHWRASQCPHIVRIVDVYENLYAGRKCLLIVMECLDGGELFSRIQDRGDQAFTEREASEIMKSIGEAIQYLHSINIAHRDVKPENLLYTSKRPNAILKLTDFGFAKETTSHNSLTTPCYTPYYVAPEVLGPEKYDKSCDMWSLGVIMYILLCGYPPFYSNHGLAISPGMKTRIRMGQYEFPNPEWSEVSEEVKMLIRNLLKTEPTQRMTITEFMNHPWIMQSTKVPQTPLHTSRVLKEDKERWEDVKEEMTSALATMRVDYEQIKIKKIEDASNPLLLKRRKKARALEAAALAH
Chain of PDGFRB (human) (P09619 whole entry, looked up): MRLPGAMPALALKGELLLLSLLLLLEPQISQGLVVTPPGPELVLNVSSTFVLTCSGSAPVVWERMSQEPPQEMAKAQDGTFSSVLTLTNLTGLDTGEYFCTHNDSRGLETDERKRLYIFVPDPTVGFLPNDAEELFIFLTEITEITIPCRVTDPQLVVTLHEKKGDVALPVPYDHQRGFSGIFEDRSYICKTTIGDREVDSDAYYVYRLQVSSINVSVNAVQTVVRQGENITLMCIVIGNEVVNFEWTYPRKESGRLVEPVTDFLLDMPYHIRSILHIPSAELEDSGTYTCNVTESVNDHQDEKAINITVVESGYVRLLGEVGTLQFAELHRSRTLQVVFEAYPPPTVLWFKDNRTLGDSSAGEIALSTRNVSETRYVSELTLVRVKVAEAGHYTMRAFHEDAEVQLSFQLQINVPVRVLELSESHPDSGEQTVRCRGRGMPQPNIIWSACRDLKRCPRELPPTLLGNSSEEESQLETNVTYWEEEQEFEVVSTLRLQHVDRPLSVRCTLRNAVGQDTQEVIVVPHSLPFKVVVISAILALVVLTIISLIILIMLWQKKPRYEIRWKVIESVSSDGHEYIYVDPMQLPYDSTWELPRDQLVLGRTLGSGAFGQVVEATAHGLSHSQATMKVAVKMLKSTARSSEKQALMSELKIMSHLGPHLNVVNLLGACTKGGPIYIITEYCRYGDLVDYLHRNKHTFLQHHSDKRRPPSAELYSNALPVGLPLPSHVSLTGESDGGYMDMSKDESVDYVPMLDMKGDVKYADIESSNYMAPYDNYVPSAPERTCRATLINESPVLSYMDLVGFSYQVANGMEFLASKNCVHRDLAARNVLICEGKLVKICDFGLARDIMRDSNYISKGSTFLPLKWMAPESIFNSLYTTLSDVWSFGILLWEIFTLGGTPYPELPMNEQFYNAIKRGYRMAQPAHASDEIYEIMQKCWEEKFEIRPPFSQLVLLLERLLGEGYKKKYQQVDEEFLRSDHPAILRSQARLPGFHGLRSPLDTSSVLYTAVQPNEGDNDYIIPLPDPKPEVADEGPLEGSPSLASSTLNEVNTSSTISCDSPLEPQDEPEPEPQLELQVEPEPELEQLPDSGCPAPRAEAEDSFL
Chain of NEK3 (human) (P51956 whole entry, looked up): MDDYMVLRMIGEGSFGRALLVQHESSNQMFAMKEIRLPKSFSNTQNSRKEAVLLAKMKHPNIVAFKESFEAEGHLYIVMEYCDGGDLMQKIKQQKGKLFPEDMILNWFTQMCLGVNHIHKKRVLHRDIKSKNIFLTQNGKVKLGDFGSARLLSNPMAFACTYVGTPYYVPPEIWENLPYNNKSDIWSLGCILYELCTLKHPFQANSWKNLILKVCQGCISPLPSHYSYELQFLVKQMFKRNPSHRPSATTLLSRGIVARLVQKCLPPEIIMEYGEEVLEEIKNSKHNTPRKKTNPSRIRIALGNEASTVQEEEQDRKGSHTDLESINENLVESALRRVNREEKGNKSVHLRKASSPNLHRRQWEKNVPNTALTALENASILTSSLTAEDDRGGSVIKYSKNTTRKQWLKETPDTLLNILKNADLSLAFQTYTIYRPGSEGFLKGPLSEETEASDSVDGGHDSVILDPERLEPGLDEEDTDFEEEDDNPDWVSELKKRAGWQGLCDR
Chain of SIK2 (human) (Q9H0K1 whole entry, looked up): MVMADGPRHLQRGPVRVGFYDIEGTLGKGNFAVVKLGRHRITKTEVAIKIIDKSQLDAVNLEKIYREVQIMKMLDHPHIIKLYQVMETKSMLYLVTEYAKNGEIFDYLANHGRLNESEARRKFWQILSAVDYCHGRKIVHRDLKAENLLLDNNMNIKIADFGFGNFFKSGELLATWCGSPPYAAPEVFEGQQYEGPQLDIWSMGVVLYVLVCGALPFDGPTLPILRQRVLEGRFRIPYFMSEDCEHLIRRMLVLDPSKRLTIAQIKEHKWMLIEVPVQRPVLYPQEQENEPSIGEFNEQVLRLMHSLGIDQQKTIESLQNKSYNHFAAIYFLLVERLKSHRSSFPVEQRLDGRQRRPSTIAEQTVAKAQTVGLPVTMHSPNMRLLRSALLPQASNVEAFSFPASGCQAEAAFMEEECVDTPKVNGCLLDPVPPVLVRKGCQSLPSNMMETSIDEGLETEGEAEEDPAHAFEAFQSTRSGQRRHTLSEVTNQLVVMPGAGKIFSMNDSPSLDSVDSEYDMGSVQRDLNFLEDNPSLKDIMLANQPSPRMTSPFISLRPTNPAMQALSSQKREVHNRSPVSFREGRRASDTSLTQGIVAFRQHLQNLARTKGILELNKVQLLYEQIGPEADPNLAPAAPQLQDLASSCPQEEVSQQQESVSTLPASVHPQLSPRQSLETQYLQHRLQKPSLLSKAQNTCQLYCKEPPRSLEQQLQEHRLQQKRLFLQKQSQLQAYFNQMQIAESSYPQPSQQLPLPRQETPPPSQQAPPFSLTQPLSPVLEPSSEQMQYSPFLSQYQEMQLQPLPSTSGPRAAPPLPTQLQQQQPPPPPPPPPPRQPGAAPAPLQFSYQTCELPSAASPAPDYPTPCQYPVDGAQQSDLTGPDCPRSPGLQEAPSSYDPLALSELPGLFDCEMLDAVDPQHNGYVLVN
Chain of PRKD1 (human) (Q15139 whole entry, looked up): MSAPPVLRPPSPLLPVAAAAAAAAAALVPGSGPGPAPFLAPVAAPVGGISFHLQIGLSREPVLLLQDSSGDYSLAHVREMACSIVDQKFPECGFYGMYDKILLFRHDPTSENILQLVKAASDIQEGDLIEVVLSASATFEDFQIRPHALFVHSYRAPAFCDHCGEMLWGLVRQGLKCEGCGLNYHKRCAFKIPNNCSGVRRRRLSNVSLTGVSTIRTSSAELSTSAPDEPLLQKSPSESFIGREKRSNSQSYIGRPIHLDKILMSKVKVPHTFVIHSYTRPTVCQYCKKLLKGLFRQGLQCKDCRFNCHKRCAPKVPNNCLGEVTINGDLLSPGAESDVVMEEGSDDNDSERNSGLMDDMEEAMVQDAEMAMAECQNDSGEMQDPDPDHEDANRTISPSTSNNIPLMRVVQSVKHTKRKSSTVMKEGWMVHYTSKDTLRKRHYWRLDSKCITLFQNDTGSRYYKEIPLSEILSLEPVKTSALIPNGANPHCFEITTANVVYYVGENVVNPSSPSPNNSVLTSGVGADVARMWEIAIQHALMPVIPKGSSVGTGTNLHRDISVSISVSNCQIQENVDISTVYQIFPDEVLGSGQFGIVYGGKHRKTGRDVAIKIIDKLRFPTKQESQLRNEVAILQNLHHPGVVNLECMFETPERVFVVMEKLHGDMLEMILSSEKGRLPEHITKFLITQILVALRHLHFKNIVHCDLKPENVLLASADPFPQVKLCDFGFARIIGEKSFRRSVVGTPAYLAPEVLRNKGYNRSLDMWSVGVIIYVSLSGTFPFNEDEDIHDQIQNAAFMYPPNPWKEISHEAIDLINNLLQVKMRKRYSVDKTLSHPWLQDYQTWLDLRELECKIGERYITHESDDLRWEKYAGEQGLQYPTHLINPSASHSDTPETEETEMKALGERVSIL
Chain of PIM2 (human) (Q9P1W9 whole entry, looked up): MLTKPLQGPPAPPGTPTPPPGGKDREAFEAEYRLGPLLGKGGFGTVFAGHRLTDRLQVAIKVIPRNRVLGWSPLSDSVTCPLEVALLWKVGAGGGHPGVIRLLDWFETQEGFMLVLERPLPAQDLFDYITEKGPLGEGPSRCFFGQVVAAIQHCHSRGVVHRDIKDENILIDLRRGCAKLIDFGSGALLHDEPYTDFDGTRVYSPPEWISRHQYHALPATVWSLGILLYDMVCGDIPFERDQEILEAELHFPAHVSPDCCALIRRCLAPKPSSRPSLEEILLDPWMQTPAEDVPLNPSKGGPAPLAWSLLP
Chain of NUAK2 (human) (Q9H093 whole entry, looked up): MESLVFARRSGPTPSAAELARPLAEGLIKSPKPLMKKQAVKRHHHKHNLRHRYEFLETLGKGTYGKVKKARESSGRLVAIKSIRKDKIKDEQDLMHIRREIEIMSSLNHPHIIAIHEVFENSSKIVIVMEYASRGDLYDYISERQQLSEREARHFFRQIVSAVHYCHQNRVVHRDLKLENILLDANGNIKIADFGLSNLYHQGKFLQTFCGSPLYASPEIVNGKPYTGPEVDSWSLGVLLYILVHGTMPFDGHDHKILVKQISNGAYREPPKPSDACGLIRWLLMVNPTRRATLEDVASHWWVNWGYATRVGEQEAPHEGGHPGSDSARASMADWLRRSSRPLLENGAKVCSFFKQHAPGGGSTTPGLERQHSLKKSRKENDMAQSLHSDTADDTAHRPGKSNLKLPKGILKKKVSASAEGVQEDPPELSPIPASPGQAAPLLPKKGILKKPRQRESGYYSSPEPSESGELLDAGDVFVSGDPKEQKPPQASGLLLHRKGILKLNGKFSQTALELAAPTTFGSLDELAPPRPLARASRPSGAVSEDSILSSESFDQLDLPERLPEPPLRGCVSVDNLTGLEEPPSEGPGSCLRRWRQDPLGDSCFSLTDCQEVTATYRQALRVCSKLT

SMILES: CC[n+]1c(/C=C/N(C)c2ccccc2)n(-c2ccccc2)c2ccc(-c3nc4ccccc4s3)cc21
- residual activity [1]: 95.7%
- residual activity [2]: 103%
- residual activity [3]: 99.6%
- residual activity [4]: 115%
- residual activity [5]: 100%
- residual activity [6]: 95.5%
- residual activity [7]: 96.8%
- residual activity [8]: 101%
- residual activity [9]: 96.3%
- residual activity [10]: 101%
- residual activity [11]: 88.4%
- residual activity [12]: 94.1%
- residual activity [13]: 103%
- residual activity [14]: 93%
- residual activity [15]: 93.9%
- residual activity [16]: 104%
- residual activity [17]: 98.8%
- residual activity [18]: 110%
- residual activity [19]: 97.2%
- residual activity [20]: 94.4%
- residual activity [21]: 102%
- residual activity [22]: 96.1%
- residual activity [23]: 93.3%
- residual activity [24]: 94.2%
- residual activity [25]: 107%
- residual activity [26]: 102%
- residual activity [27]: 117%
- residual activity [28]: 77.7%
- residual activity [29]: 91.9%
- residual activity [30]: 108%
- residual activity [31]: 88.6%
- residual activity [32]: 98.1%
- residual activity [33]: 123%
- residual activity [34]: 112%
- residual activity [35]: 98.4%
- residual activity [36]: 99.2%
- residual activity [37]: 98.3%
- residual activity [38]: 104%
- residual activity [39]: 116%
- residual activity [40]: 96.6%
- residual activity [41]: 88.5%

SMILES: CCN(CC)C(=O)c1ccc(Nc2nc(OCC3CCCCC3)c3nc[nH]c3n2)cc1
- residual activity [1]: 67.8%
- residual activity [2]: 98.8%
- residual activity [3]: 92%
- residual activity [4]: 97.5%
- residual activity [5]: 55.8%
- residual activity [6]: 44.2%
- residual activity [7]: 87.4%
- residual activity [8]: 90.2%
- residual activity [9]: 92.1%
- residual activity [10]: 63.2%
- residual activity [11]: 66.9%
- residual activity [12]: 54.2%
- residual activity [13]: 92.4%
- residual activity [14]: 28.4%
- residual activity [15]: 76.5%
- residual activity [16]: 40.7%
- residual activity [17]: 57.1%
- residual activity [18]: 85.9%
- residual activity [19]: 99.2%
- residual activity [20]: 103%
- residual activity [21]: 69.4%
- residual activity [22]: 101%
- residual activity [23]: 23.1%
- residual activity [24]: 99%
- residual activity [25]: 116%
- residual activity [26]: 54.6%
- residual activity [27]: 105%
- residual activity [28]: 82.5%
- residual activity [29]: 62.6%
- residual activity [30]: 76.9%
- residual activity [31]: 97.2%
- residual activity [32]: 54.9%
- residual activity [33]: 94.4%
- residual activity [34]: 75.3%
- residual activity [35]: 33.6%
- residual activity [36]: 84.5%
- residual activity [37]: 46.3%
- residual activity [38]: 61.1%
- residual activity [39]: 74.2%
- residual activity [40]: 47.8%
- residual activity [41]: 4.96%

SMILES: Cc1ccc(S(=O)(=O)/C=C/C#N)cc1
- residual activity [1]: 104%
- residual activity [2]: 101%
- residual activity [3]: 94.9%
- residual activity [4]: 102%
- residual activity [5]: 98%
- residual activity [6]: 89.7%
- residual activity [7]: 94.3%
- residual activity [8]: 101%
- residual activity [9]: 96.8%
- residual activity [10]: 100%
- residual activity [11]: 95.2%
- residual activity [12]: 100%
- residual activity [13]: 83.9%
- residual activity [14]: 93.5%
- residual activity [15]: 94.7%
- residual activity [16]: 102%
- residual activity [17]: 99.9%
- residual activity [18]: 106%
- residual activity [19]: 93.7%
- residual activity [20]: 113%
- residual activity [21]: 108%
- residual activity [22]: 108%
- residual activity [23]: 88.4%
- residual activity [24]: 103%
- residual activity [25]: 83.2%
- residual activity [26]: 103%
- residual activity [27]: 103%
- residual activity [28]: 70.6%
- residual activity [29]: 93.8%
- residual activity [30]: 104%
- residual activity [31]: 93.8%
- residual activity [32]: 93.2%
- residual activity [33]: 112%
- residual activity [34]: 106%
- residual activity [35]: 88.3%
- residual activity [36]: 89.3%
- residual activity [37]: 94.7%
- residual activity [38]: 105%
- residual activity [39]: 101%
- residual activity [40]: 107%
- residual activity [41]: 82.8%
